The results in this text go back to ChEMBL document CHEMBL1201862, “PubChem BioAssay data set” (2004).

What is called Ki is the equilibrium dissociation constant of an inhibitor or competing ligand from its target. In general, AC50 refers to the midpoint of the concentration-response curve, whichever way the signal moves. What is called IC50 is the concentration that gives 50% inhibition.

One assay deals with fMet-Leu-Phe receptor (Homo sapiens, UniProt P21462). Description: FPR ligands, dose response (AID 519). The class given is functional.
A short description of assay [1]: HEK293T cytotoxicity, dose response, cytotoxicity control for miR-122 modulator project, cell-based, activator set, cherry-pick (AID 720690).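 Also: HEK293T human cells scored for general mammalian cytotoxicity.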 The class given is functional.
Assay [2] deals with T1, Oxysterols receptor LXR-beta (Homo sapiens, UniProt P55055).
T1 sequence (P55055 whole entry): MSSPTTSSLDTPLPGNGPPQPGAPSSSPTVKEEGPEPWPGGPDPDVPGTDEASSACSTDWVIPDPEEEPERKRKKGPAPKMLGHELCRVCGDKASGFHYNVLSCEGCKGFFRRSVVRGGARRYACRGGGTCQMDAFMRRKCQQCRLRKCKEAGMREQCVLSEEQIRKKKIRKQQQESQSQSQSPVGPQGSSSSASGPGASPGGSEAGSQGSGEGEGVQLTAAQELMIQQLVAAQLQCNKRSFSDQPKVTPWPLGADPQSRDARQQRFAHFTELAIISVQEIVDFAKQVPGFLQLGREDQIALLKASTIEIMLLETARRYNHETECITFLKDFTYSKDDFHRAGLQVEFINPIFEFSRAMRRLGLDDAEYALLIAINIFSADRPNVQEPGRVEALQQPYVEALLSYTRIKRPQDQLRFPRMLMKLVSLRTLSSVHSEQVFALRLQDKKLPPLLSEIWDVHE
The class given is functional, cell-based.

Assay [3] in a line: cells.
For assay [4], the target named is 1-phosphatidylinositol 4,5-bisphosphate phosphodiesterase gamma-1 (Homo sapiens, UniProt P19174). Description: Counterscreen for inhibitors of phospholipase C isozymes (PLC-B3): Fluorescence-based biochemical high throughput dose response assay to identify inhibitors of phospholipase C isozymes (PLC-gamma1). On the technique in general: The purpose of a counterscreen is to sort out artefacts and off-target activity.

Assay [5] deals with 1-phosphatidylinositol 4,5-bisphosphate phosphodiesterase beta-3 (Homo sapiens, UniProt Q01970). Description: Fluorescence-based biochemical high throughput dose response assay to identify inhibitors of phospholipase C isozymes (PLC-B3).
The target of a further assay is Paired box protein Pax-8 (Homo sapiens, UniProt Q06710). Description: inhibitors of PAX8-driven TPO luciferase reporter, dose response, RMG-I cells, cherry-pick (AID 687027).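 Also: luciferase reporter driven by Pax8 target thyroperoxidase promoter measured by SteadyGlo luminescence.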 The class given is functional, cell-based. (Reporter assays use an easily measured gene product as a stand-in for the process of interest.)
Assay [6] can be described thus: IGROV1 ovarian cancer cell cytotoxicity, dose response, PAX8 inhibitor project, plate reader, dry powder samples (AID 743043). As to conditions: IGROV-1. The class given is functional, cell-based.
A short description of assay [7]: non-specific cell cytotoxicity, dose response, cytotoxicity control for PAX8 inhibitor project, plate reader, dry powder samples (AID 743021). The class given is functional, cell-based.
Assay [8] in a line: cytotoxicity in OVCAR8 ovarian cancer cells, dose response, PAX8 project, cell-based, plate reader, dry powder samples (AID 743197). The class given is functional. The following applies: OVCAR-8.
Assay [9] is described as follows: Luminescence-based cell-based high throughput dose response assay to identify activators of the DAF-12 from the parasite S. stercoralis (ssDAF-12). The class given is functional.
Assay [10] addresses T1, Oxysterols receptor LXR-beta. Description: LXR agonists, Gal4 luciferase reporter, dose response, counter-screen for ssDAF-12 agonist project, cell-based, luminescence, HEK293, S. stercoralis campaign (AID 720737). As to conditions: read-out: IC50 (the source's name). The class given is functional.
The next assay deals with Major prion protein (Homo sapiens, UniProt P04156). The class given is functional, cell-based.
The nature of assay [11]: cells. This is another data set of the same source.
In assay [12] the target is Luciferin 4-monooxygenase (Photinus pyralis, UniProt P08659). Description: firefly luciferase enzyme inhibitors, dose response, biochemical, luminescence (AID 1891).
The nature of assay [13]: Luminescence Cell-Based Dose Confirmation HTS to Identify Inhibitors of Platelet Dense Granule Release. [Related pubchem assays: 1663 (Primary HTS), 1678 (Summary of Project)]. The class given is functional.
The target in another assay is T2, Protein skinhead-1 (Caenorhabditis elegans, UniProt P34707).
T2 sequence (P34707 whole entry): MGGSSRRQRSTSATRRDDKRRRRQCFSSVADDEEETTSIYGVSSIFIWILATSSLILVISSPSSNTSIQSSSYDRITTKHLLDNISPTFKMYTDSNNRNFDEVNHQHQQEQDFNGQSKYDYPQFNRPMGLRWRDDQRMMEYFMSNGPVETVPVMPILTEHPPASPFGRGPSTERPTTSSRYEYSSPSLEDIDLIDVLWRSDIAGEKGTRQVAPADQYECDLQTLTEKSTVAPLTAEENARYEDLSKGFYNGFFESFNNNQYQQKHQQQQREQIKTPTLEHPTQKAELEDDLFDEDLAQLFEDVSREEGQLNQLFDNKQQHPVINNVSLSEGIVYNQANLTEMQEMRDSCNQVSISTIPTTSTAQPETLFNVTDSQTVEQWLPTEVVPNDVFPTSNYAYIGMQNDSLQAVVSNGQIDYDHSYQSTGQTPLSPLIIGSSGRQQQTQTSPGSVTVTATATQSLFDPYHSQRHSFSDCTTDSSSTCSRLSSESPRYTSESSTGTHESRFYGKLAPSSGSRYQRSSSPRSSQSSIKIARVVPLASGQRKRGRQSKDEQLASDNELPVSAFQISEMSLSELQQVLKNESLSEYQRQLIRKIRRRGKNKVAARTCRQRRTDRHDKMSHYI
The class given is functional.

A short description of assay [14]: HepG2 cell cytotoxicity, dose response, cytotoxicity control, plate reader, cherry-pick, antagonist series (AID 743416). The class given is functional, cell-based.
Assay [15] in a line: LGR2 antagonists, dose response, cell-based, HEK293, CRE-luciferase reporter, cherry pick, set 2 (AID 743343).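 Also: transfected cells were stimulated with diluted bursicon conditioned medium after compound addition.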 The class given is functional.
Assay [16] can be described thus: MC4R antagonists, dose response, counter-screen for LGR2 antagonist project, cell-based, plate reader, cherry pick (AID 743444).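 Also: transfected HEK 293 cells stimulated with alpha-MSH peptide; potency of inhibitors of the alpha-MSH evoked signal.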 The class given is functional.
The target of assay [17] is T1, Oxysterols receptor LXR-beta. The class given is functional, cell-based. This is another data set of the same source.
The target in assay [18] is T3, DNA repair and recombination protein RAD54-like (Homo sapiens, UniProt Q92698).
T3 sequence (Q92698 whole entry): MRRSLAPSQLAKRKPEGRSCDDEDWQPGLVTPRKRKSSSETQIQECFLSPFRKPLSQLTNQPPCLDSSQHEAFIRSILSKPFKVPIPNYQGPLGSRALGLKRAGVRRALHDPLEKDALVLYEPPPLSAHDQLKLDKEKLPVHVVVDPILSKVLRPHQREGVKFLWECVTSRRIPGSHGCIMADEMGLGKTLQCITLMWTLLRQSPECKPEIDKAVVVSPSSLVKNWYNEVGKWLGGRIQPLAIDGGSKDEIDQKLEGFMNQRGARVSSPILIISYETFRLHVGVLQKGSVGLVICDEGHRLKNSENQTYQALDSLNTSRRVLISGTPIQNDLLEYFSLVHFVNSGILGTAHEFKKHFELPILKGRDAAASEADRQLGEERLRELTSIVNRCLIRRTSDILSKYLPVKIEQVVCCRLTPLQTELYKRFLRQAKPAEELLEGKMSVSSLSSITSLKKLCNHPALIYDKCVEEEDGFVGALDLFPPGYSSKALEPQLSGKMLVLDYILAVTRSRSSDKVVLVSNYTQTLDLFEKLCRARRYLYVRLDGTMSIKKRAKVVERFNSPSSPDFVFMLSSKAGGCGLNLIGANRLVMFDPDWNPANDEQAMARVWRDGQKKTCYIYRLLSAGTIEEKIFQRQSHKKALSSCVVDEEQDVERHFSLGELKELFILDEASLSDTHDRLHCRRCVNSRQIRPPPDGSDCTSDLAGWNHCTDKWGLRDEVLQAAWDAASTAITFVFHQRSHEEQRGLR
Description: inhibitors of human RAD54 branch migration, confirmation, biochemical, fluorescence, cherry-picked samples, dose series (AID 651657). The class given is functional.

The target in assay [19] is DNA repair protein RAD52 homolog (Homo sapiens, UniProt P43351). The class given is functional, biochemical.
Assay [20] can be described thus: Luminescence Cell-Based Dose Response HTS to Identify Inhibitors of 5'UTR Stem-Loop Driven Prion Protein mRNA Translation in H4 Neuroglioblastoma Cells. [Related pubchem assays: 1827 (Project Summary), 1813 (Primary HTS)]. The class given is functional.
Assay [21] is described as follows: cells. The class given is functional, cell-based.
For assay [22], the target named is T4, Nuclear receptor subfamily 0 group B member 1 (Homo sapiens, UniProt P51843).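 Also: HEK293T cells transfected with SF-1 and DAX-1 plus StAR promoter luciferase reporter.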
T4 sequence (P51843 whole entry): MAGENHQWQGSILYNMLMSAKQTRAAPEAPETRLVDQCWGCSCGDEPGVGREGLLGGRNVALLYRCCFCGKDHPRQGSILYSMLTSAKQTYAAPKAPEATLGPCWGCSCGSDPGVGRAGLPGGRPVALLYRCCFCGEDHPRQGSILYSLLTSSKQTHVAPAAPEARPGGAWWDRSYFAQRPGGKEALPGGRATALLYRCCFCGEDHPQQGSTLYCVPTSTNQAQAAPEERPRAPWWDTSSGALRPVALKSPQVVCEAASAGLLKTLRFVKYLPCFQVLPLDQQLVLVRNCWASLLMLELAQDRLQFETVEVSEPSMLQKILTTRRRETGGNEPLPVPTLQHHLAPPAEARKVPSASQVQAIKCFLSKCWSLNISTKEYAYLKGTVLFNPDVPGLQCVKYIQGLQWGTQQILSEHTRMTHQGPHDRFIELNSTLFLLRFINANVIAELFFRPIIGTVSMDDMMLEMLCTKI
The class given is functional, cell-based.

A short description of assay [23]: T. cruzi intracellular amastigote growth inhibition, dose response, imaging, CA-I/72 strain, bovine embryo skeletal muscle, dry powder (AID 651885). The class given is functional, cell-based.

Structures are written as SMILES. The source made the active and inactive calls.

Take `COc1ccc(-c2nc(-c3ccc(Br)o3)no2)cc1OC`: the Ki on fMet-Leu-Phe receptor was > 66.7 µM (inactive).

Consider `COc1ccc(C#Cc2ccc3c(c2)O[C@H](CN(C)C(=O)CN2CCOCC2)[C@@H](C)CN([C@@H](C)CO)S3(=O)=O)cc1`, for which, in assay [1], the AC50 is 43.2 µM (active).

With `Cc1ccc(CNC2=Nc3ccccc3CS2)cc1`, the EC50 (in assay [2]; in “cells [3]”) was > 67.5 µM (inactive) each time.

Turning to `O=S(=O)(CS(=O)(=O)c1ccc(Br)cc1)c1ccc(Br)cc1`, the values for the IC50 in assay [4] and in [5] were 30.4 µM (inactive) and > 123 µM (inactive), respectively.

As to `COc1ccc(NC(=O)N2CC(=O)N3[C@@H](CO)[C@@H](c4ccc(/C=C/c5ccccc5)cc4)[C@@H]3C2)cc1`, the AC50 at Paired box protein Pax-8 is 5.52 µM (active); in [6] it was 54.8 µM (active); in assay [7], 7.22 µM (active); in [8] it was 39.1 µM (active).

Regarding `COc1cccc(CC(=O)Nc2ccc3c(c2)c(=O)n(C)n3-c2ccc(C(C)(C)C)cc2)c1`, the IC50 in [9] is > 67.6 µM (inactive). Also, the EC50 in [10] is > 67.6 µM (inactive).

On to `CCc1nc(SCC(=O)OC(C)C)c2ccccc2n1`, for which the IC50 on Major prion protein is 2.38 µM (active); in the assay “cells [11]” it was > 138 µM (inactive).

For the molecule `C[C@H]1CN([C@@H](C)CO)S(=O)(=O)c2ccc(C#CC3CCCCC3)cc2O[C@@H]1CN(C)C`, the AC50 in assay [1] was 26.4 µM (active).

Take `Cc1ccc(-c2noc(-c3cccs3)n2)cc1`: the EC50 in [12] is 3.98 µM (active); in assay [13], > 112 µM (not active); in [2], > 67.5 µM (inactive); in “cells [3]” it was > 67.5 µM (inactive). The IC50 at Protein skinhead-1 was 18.8 µM (active). Also, the figures for the AC50 in [14], in assay [15] and in [16] were > 52 µM (inactive), 14.4 µM (active) and 22.3 µM (active), respectively.

Turning to `O=C(COc1ccc2ccccc2c1Br)NC(=S)Nc1cccc(CO)c1`, the IC50 at Major prion protein was 9.99 µM (active); in “cells [11]”, 98.9 µM (inactive).

As for `Cn1c(SCc2ccccc2F)nc2cccnc21`, the EC50 in assay [17] is > 67.5 µM (inactive).

Turning to `CN(C)CCNC(=O)c1cccc(-c2cnc3c(NC=O)cc(-c4ccccc4F)cn23)c1`, the results for the AC50 in assay [18] and in [19] were 21.7 µM (active) and 3.69 µM (active), respectively.

Turning to `O=C(N/N=C/c1cccs1)c1[nH]nc2c1CCC2`, the values for the EC50 in assay [20] and in [17] were 11 µM (inconclusive) and > 67.5 µM (inactive), respectively.

Regarding `C=CCOc1ccc(/C=N/Nc2ccccn2)cc1OC`, the IC50 (in “cells [21]”; in assay [22]) was > 67.5 µM (inactive) each time.

On to `Oc1cc(-c2ccccc2)nc(N2CCN(Cc3ccccc3)CC2)n1`, for which the Ki on fMet-Leu-Phe receptor is > 66.7 µM (inactive).

As to `CC(C)N1C[C@H](C)[C@@H](CN(C)C(=O)OC(C)(C)C)Oc2c(NC(=O)c3cccnc3)cccc2C1=O`, the IC50 in [23] is > 20 µM (inactive).

Turning to `CCCCN1C(C)=CC(=C2C(=O)c3ccccc3C2=O)C=C1C`, the IC50 (in “cells [21]”; in assay [22]) was > 67.5 µM (inactive) in each case.
